The target of one test is T1, human alpha2C receptors (Homo sapiens, UniProt P18825).
T1 sequence (P18825 1-462): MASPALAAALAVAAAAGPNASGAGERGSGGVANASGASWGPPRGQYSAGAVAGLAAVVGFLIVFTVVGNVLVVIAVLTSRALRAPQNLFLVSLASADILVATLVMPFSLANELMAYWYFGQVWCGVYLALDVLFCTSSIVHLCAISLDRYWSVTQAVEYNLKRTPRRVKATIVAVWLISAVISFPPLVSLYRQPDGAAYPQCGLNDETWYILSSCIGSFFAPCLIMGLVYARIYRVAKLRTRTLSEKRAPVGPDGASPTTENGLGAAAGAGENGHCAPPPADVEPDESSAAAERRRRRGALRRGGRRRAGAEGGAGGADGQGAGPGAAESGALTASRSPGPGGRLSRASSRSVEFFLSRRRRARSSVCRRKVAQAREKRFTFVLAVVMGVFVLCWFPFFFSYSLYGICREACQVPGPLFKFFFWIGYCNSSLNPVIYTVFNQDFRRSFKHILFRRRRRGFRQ
As to the kind of experiment: Determination of alpha2C antagonistic activity in vitro (FLIPR calcium assay). The settings on record: for Kb: Alpha 2C Adrenaline Kb, Kb calculated from IC50 with the Cheng-Prusoff equation, adrenaline as agonist, CHO cells, human alpha2C.

The target of another test is T2, human alpha2A receptors (Homo sapiens, UniProt P08913).
T2 sequence (P08913 1-465): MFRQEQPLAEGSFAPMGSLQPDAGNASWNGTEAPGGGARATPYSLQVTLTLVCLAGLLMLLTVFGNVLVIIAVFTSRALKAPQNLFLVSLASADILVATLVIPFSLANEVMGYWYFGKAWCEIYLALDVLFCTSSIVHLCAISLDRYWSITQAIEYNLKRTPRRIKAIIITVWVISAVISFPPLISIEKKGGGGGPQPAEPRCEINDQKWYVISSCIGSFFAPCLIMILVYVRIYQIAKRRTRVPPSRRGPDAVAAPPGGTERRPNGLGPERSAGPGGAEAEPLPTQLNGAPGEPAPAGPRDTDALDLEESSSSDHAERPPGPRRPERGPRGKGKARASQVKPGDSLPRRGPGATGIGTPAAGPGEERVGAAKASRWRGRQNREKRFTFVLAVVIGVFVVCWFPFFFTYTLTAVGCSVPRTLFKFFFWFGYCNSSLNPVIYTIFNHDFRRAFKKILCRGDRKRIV
The experiment in a line: cell-based.

Experimental for human alpha2A receptors: Experiment 1: Determination of alpha2A and alpha2C Antagonistic Activity In Vitro
The growth medium was removed and the cells were incubated with the test compounds and the FLIPR Calcium 6 Assay reagent (Molecular Devices, CA, USA) for 2 h at 37° C. in dark. The test compounds (concentrations in cells 100 pM-10 μM) were dissolved in Probenecid-Ringer consisting of 150 mM NaCl, 3 mM KCl, 1.2 mM MgCl2, 1 mM CaCl2, 5 mM glucose, 20 mM HEPES and 2.5 mM probenecid (pH 7.4 adjusted with 1.0 M NaOH). […] All experiments were performed at 37° C. For agonism measurements the test compounds dissolved in Probenecid-Ringer were applied by FLIPR Tetra at 15 s time point. In order to determine antagonism, the cells were stimulated either with 100 nM adrenaline or noradrenaline and the test compounds were added to the cells 2 h before the experiment with the FLIPR Calcium 6 Assay reagent. […] Typically, there were four replicates at each concentration and six different dose levels. […] The minimum fluorescence value subtracted from the maximum value for each well was used in the calculations. ScreenWorks version 4.0 software was used for analyzing the results. Fitting of the antagonist dose-response results was performed with the free Hill equation and the IC50 values were fitted with IDBS XE software using model 200: y=(A+(B/(1+((x/C)̂D)))), where A is the curve maximum, B the curve minimum and C equals the EC50 value. D is slope factor (Hill). Kb was calculated with the Cheng-Prusoff equation Kb=A/((B/C)+1), where A is the IC50 of antagonist, B the concentration of agonist and C the EC50 of the agonist.

A word on the IC50: it is the concentration needed to halve the response being measured. For the compound `O=C1NC(c2ccccc2)C(=O)N1[C@H]1CCCN(C[C@H]2COc3ccccc3O2)C1` (stereo partly drawn) [example 114, 3-((S)-1-(((S)-2,3-Dihydrobenzo[b][1,4]dioxin-2-yl)methyl)piperidin-3-yl)-5-phenylimidazolidine-2,4-dione], the IC50 on human alpha2C receptors is below 0.1 nM; against human alpha2A receptors, 2340 nM. In addition, the values for the Kb at human alpha2C receptors and at human alpha2A receptors were below 0.01 nM and 105 nM, respectively.
With `CC1C(=O)N([C@H]2CCCN(C[C@H]3COc4ccccc4O3)C2)C(=O)N1C` (stereo partly drawn) [example 115, 3-((S)-1-(((S)-2,3-Dihydrobenzo[b][1,4]dioxin-2-yl)methyl)-piperidin-3-yl)-1,5-dimethylimidazolidine-2,4-dione], the IC50 was 2.08 nM on human alpha2C receptors and above 10000 nM against human alpha2A receptors. Besides, the Kb on human alpha2C receptors was 0.21 nM; at human alpha2A receptors, above 449 nM.
For the compound `CC(C)N1C(=O)N([C@H]2CCCN(C[C@H]3COc4ccccc4O3)C2)C(=O)C1(C)C` [example 116, 3-((S)-1-(((S)-2,3-Dihydrobenzo[b][1,4]dioxin-2-yl)methyl)-piperidin-3-yl)-1-isopropyl-5,5-dimethylimidazolidine-2,4-dione], at human alpha2C receptors, the IC50 came to 1 nM and the Kb is 0.1 nM. On human alpha2A receptors, this compound displayed an IC50 above 10000 nM and a Kb above 449 nM.
The like results for `CC(C)(C)N1CC(=O)N([C@H]2CCCN(C[C@H]3COc4ccccc4O3)C2)C1=O` [example 117, 1-tert-Butyl-3-((S)-1-(((S)-2,3-dihydrobenzo[b][1,4]dioxin-2-yl)methyl)piperidin-3-yl)imidazolidine-2,4-dione] were, in that order, 1.99 nM, 0.202 nM, above 10000 nM and above 449 nM.
The like results for `O=C1CN(Cc2ccccc2)C(=O)N1[C@H]1CCCN(C[C@H]2COc3ccccc3O2)C1` [example 118, 1-Benzyl-3-((S)-1-(((S)-2,3-dihydrobenzo[b][1,4]dioxin-2-yl)methyl)-piperidin-3-yl)imidazolidine-2,4-dione] were, in that order, below 0.1 nM, below 0.01 nM, 1120 nM and 50 nM.
The like results for `O=C1CN(C2CC2)C(=O)N1[C@H]1CCCN(C[C@H]2COc3ccccc3O2)C1` [example 119, 1-Cyclopropyl-3-((S)-1-(((S)-2,3-dihydrobenzo[b][1,4]dioxin-2-yl)methyl)piperidin-3-yl)imidazolidine-2,4-dione] were, in that order, 17.5 nM, 1.76 nM, above 10000 nM and above 449 nM.
For the compound `O=C1CN(C2COC2)C(=O)N1[C@H]1CCCN(C[C@H]2COc3ccccc3O2)C1` [example 120, 3-((S)-1-(((S)-2,3-Dihydrobenzo[b][1,4]dioxin-2-yl)methyl)-piperidin-3-yl)-1-(oxetan-3-yl)imidazolidine-2,4-dione], at human alpha2C receptors, the IC50 amounted to 132 nM and the Kb is 13.3 nM. Also, at human alpha2A receptors, the IC50 was above 10000 nM and the Kb was above 449 nM.
The like results for `O=C1CN(C2CC(F)(F)C2)C(=O)N1[C@H]1CCCN(C[C@H]2COc3ccccc3O2)C1` [example 121, 1-(3,3-Difluorocyclobutyl)-3-((S)-1-(((S)-2,3-dihydrobenzo[b][1,4]dioxin-2-yl)methyl)piperidin-3-yl)imidazolidine-2,4-dione] were, in that order, 26.4 nM, 2.66 nM, above 10000 nM and above 449 nM.
The like results for `O=C1NC2(CC2)C(=O)N1[C@H]1CCCN(C[C@H]2COc3ccccc3O2)C1` [example 122, 6-((S)-1-(((S)-2,3-Dihydrobenzo[b][1,4]dioxin-2-yl)methyl)-piperidin-3-yl)-4,6-diazaspiro[2.4]heptane-5,7-dione] were, in that order, 0.11 nM, 0.01 nM, 1380 nM and 62 nM.
The like results for `CN1C(=O)N([C@H]2CCCN(C[C@H]3COc4ccccc4O3)C2)C(=O)C12CC2` [example 123, 6-((S)-1-(((S)-2,3-Dihydrobenzo[b][1,4]dioxin-2-yl)methyl)-piperidin-3-yl)-4-methyl-4,6-diazaspiro[2.4]heptane-5,7-dione] were, in that order, 3.52 nM, 0.354 nM, above 10000 nM and above 449 nM.
For `CN(C)C(=O)CN1C(=O)N([C@H]2CCCN(C[C@H]3COc4ccccc4O3)C2)C(=O)C12CC2` [example 124, 2-(6-((S)-1-(((S)-2,3-Dihydrobenzo[b][1,4]dioxin-2-yl)methyl)-piperidin-3-yl)-5,7-dioxo-4,6-diazaspiro[2.4]heptan-4-yl)-N,N-dimethylacetamide], on human alpha2C receptors, the IC50 came to 1.47 nM and the Kb was 0.131 nM. On human alpha2A receptors, this compound gave a concentration for half-maximal inhibition (IC50) above 10000 nM and a Kb above 449 nM.
The like results for `O=C1C(=O)N([C@H]2CCCN(C[C@H]3COc4ccccc4O3)C2)C(=O)N1C1CCCCC1` [example 126, 1-Cyclohexyl-3-((S)-1-(((S)-2,3-dihydrobenzo[b][1,4]dioxin-2-yl)methyl)piperidin-3-yl)imidazolidine-2,4,5-trione] were, in that order, 0.01 nM, 0.001 nM, 3890 nM and 175 nM.
The like results for `O=C1C(=O)N([C@H]2CCCN(C[C@H]3COc4ccccc4O3)C2)C(=O)N1C1CCCC1` [example 127, 1-Cyclopentyl-3-((S)-1-(((S)-2,3-dihydrobenzo[b][1,4]dioxin-2-yl)methyl)piperidin-3-yl)imidazolidine-2,4,5-trione] were, in that order, 0.027 nM, 0.003 nM, 8670 nM and 389 nM.
The like results for `C[C@H](c1ccccc1)N1C(=O)C(=O)N([C@H]2CCCN(C[C@H]3COc4ccccc4O3)C2)C1=O` [example 128, 1-((S)-1-(((S)-2,3-Dihydrobenzo[b][1,4]dioxin-2-yl)methyl)-piperidin-3-yl)-3-((R)-1-phenylethyl)imidazolidine-2,4,5-trione] were, in that order, 1.19 nM, 0.119 nM, 8890 nM and 399 nM.
In the case of `O=C1C(=O)N([C@H]2CCCN(C[C@H]3COc4ccccc4O3)C2)C(=O)N1c1ccccc1` [example 129, 1-((S)-1-(((S)-2,3-Dihydrobenzo[b][1,4]dioxin-2-yl)methyl)-piperidin-3-yl)-3-phenylimidazolidine-2,4,5-trione], at human alpha2C receptors, the IC50 was 1.58 nM and the Kb was 0.162 nM. At human alpha2A receptors, this compound returned an IC50 above 10000 nM and a Kb above 449 nM.
The like results for `CC(C)N1C(=O)C(=O)N([C@H]2CCCN(C[C@H]3COc4ccccc4O3)C2)C1=O` [example 130, 1-((S)-1-(((S)-2,3-Dihydrobenzo[b][1,4]dioxin-2-yl)methyl)-piperidin-3-yl)-3-isopropylimidazolidine-2,4,5-trione] were, in that order, 0.256 nM, 0.028 nM, 6590 nM and 296 nM.
Take `O=C1C(=O)N([C@H]2CCCN(C[C@H]3COc4ccccc4O3)C2)C(=O)N1Cc1ccccc1` [example 131, 1-Benzyl-3-((S)-1-(((S)-2,3-dihydrobenzo[b][1,4]dioxin-2-yl)methyl)piperidin-3-yl)imidazolidine-2,4,5-trione]: the results for the IC50 on human alpha2C receptors and against human alpha2A receptors were 1.64 nM and 5700 nM, respectively. In addition, the Kb at human alpha2C receptors was 0.165 nM; at human alpha2A receptors, 256 nM.
In the case of `CCCN1C(=O)C(=O)N([C@H]2CCCN(C[C@H]3COc4ccccc4O3)C2)C1=O` [example 132, 1-((S)-1-(((S)-2,3-Dihydrobenzo[b][1,4]dioxin-2-yl)methyl)-piperidin-3-yl)-3-propylimidazolidine-2,4,5-trione], on human alpha2C receptors, the 50% inhibitory concentration (IC50) was found to be 0.308 nM and the Kb was 0.031 nM. At human alpha2A receptors, this compound displayed a half-maximal inhibitory concentration (IC50) above 10000 nM and a Kb above 449 nM.
The like results for `CC(C)(C)N1C(=O)C(=O)N([C@H]2CCCN(C[C@H]3COc4ccccc4O3)C2)C1=O` [example 134, 1-tert-Butyl-3-((S)-1-(((S)-2,3-dihydrobenzo[b][1,4]dioxin-2-yl)methyl)piperidin-3-yl)imidazolidine-2,4,5-trione] were, in that order, 0.796 nM, 0.08 nM, above 10000 nM and above 449 nM.
The like results for `CN(C)CCN1C(=O)C(=O)N([C@H]2CCCN(C[C@H]3COc4ccccc4O3)C2)C1=O` [example 135, 1-((S)-1-(((S)-2,3-Dihydrobenzo[b][1,4]dioxin-2-yl)methyl)-piperidin-3-yl)-3-(2-(dimethylamino)ethyl)imidazolidine-2,4,5-trione] were, in that order, 444 nM, 44.7 nM, above 10000 nM and above 449 nM.
